The record followed here is patent publication US8357707B2, “2-carboxamide cycloamino ureas” (Novartis AG, priority 2009, dated 2013).

What all share (format): biochemical
One assay concerns the target T1, PI3Kα (Homo sapiens, UniProt P42336).
T1 construct: His tag (C); made in house; host or cells: Tn5 insect cells, baculovirus BV-1075
Description: PI3K KinaseGlo assay, PI3Kalpha. As to conditions: 10 nM enzyme, 1 μM ATP, 30 mins. (In general: In Kinase-Glo more light means more ATP remaining.)

Another assay concerns the target T2, PI3Kβ (Homo sapiens, UniProt P42338).
T2 construct: His tag (C); made in house; host or cells: Tn5 insect cells, baculovirus BV949 (vector LR280)
The assay is described as follows: PI3K KinaseGlo assay, PI3Kbeta. The following applies: 25 nM enzyme, 1 μM ATP, 30 mins.

The next assay addresses T3, PI3Kγ (Homo sapiens, UniProt P48736, Q459R).
T3 construct: Constructs lacking the N-terminal 144 aa; His tag (C); made in house; host or cells: Tn5 insect cells, baculovirus BV950; construct from the Roger Williams lab (MRC LMB)
The assay is described as follows: PI3K KinaseGlo assay, PI3Kgamma. As to conditions: 150 nM enzyme, 1 μM ATP, 90 mins.

Another assay concerns the target T4, PI3Kδ (Homo sapiens, UniProt O00329).
T4 construct: His tag (C); made in house; host or cells: Tn5 insect cells, baculovirus BV1060 (vector LR415)
The assay is described as follows: PI3K KinaseGlo assay, PI3Kdelta. The following applies: 10 nM enzyme, 1 μM ATP, 30 mins.

T2 sequence (P42338 with tags, fused parts or gaps): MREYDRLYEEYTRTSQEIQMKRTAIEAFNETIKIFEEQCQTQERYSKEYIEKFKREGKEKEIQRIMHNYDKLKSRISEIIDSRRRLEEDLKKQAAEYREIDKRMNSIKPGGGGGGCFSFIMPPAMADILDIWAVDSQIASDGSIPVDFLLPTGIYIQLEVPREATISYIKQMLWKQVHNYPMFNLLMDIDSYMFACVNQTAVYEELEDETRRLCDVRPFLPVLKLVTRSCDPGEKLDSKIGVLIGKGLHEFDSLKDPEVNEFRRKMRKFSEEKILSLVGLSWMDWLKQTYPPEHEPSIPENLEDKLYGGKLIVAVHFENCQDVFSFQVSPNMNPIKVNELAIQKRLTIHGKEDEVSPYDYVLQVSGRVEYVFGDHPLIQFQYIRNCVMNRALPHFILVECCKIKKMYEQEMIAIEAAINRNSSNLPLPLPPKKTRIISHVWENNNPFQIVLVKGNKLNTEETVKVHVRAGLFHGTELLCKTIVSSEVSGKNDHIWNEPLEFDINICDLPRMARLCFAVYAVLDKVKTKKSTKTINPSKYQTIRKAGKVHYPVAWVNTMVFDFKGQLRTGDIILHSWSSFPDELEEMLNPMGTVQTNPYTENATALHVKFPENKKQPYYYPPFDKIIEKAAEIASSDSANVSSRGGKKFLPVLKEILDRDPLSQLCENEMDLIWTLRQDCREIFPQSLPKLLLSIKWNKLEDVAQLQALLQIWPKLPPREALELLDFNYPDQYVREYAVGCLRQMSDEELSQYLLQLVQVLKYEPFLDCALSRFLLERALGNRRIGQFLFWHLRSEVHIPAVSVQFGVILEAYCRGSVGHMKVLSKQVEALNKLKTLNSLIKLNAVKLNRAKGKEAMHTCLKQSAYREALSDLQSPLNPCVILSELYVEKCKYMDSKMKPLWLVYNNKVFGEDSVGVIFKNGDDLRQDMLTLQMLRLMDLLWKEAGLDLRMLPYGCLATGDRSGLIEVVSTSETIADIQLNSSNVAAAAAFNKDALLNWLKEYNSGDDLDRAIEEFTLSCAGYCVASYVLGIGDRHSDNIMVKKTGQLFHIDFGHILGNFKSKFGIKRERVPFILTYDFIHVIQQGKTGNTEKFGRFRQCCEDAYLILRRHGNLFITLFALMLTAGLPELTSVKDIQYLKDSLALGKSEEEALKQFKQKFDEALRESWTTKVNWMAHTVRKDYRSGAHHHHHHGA
T4 sequence (O00329 with tags, fused parts or gaps): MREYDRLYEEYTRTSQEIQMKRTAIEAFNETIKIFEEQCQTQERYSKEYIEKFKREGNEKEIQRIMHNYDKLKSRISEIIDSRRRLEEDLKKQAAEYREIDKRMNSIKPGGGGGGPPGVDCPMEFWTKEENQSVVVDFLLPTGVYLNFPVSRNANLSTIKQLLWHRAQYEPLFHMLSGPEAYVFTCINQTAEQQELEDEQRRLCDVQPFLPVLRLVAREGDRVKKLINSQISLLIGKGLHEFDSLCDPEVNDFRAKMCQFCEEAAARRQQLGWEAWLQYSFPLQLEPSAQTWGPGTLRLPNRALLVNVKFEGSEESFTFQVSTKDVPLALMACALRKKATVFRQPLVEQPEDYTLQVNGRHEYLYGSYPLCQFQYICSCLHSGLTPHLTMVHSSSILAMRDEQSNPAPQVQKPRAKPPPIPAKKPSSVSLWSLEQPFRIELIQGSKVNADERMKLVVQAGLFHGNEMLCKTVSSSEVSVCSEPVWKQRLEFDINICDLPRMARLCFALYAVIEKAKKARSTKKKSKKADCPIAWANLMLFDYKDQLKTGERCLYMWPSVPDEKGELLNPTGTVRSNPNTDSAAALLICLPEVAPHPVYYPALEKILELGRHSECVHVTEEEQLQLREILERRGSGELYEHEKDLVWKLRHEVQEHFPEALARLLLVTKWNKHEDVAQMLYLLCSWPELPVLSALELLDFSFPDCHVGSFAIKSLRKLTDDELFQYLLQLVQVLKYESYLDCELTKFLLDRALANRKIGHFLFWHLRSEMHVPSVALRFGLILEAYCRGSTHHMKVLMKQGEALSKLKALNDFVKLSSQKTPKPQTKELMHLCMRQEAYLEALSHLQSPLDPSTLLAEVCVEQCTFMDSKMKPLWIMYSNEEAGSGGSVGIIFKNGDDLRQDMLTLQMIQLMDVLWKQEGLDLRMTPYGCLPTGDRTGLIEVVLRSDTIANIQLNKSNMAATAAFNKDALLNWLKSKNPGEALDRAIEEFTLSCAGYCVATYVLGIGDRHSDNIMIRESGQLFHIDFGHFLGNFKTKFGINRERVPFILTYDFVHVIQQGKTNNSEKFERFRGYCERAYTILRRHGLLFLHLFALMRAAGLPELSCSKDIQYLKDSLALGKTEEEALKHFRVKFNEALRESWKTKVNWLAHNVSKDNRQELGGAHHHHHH
T3 sequence (P48736 with tags, fused parts or gaps Q459R): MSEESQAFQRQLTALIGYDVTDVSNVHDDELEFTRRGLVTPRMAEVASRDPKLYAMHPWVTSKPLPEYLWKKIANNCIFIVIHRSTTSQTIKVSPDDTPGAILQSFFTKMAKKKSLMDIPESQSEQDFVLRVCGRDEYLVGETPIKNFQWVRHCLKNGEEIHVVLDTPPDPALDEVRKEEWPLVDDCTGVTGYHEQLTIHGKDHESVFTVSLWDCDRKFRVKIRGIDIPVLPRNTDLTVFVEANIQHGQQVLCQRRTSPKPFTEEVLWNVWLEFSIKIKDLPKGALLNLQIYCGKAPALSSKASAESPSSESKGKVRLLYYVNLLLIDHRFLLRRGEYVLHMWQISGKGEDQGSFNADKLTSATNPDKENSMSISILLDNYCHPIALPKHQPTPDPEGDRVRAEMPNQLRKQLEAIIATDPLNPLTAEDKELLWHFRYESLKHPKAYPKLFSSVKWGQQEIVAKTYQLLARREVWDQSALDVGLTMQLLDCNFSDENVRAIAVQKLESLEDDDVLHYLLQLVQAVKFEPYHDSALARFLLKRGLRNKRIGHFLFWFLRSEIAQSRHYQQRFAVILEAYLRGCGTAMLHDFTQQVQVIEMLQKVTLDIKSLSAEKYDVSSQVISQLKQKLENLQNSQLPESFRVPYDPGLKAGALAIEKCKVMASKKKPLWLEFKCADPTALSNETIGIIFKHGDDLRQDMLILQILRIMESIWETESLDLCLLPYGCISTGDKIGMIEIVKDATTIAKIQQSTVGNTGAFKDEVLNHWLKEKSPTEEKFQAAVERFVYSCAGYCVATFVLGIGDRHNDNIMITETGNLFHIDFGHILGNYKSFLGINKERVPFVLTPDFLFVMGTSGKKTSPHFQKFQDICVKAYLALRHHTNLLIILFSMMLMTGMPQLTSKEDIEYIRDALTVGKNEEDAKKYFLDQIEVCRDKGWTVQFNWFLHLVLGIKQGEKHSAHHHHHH
T1 sequence (P42336 with tags, fused parts or gaps): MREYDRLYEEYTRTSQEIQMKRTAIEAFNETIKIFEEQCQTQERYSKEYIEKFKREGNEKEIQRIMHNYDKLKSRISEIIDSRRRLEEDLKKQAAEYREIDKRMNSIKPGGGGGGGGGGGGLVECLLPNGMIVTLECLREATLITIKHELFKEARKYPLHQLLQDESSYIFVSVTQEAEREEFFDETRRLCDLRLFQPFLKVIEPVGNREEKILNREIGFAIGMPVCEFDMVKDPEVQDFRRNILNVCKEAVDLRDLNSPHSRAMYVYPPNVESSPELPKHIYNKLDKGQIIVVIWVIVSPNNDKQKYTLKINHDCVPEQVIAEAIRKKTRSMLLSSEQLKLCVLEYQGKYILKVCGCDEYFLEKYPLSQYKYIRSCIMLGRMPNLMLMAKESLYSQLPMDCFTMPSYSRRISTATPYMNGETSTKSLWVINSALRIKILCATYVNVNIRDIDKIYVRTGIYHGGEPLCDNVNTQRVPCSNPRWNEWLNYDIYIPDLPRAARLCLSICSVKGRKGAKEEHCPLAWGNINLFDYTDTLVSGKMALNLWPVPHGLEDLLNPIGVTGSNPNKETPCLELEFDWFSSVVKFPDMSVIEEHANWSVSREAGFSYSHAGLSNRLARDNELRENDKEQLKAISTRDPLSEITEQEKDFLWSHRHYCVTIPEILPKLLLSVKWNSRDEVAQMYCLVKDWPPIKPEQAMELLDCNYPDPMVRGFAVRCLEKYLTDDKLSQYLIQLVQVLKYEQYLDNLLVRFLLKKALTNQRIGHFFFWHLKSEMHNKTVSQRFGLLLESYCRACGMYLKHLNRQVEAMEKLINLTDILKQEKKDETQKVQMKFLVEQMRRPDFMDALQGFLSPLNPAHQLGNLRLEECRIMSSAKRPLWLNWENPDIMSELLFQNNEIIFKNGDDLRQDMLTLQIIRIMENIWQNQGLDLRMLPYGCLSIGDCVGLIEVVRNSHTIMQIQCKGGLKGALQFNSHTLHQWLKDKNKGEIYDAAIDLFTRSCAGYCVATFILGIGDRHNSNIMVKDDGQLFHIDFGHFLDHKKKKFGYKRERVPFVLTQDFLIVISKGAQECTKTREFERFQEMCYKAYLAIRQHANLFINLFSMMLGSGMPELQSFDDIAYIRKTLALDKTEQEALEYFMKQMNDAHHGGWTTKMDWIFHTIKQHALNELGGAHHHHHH

By IC50 is commonly meant the concentration that gives 50% inhibition. Lower therefore signals greater potency. `CCN(CC)c1ncc2c(n1)-c1sc(NC(=O)N3CC[C@H](C)[C@H]3C(N)=O)nc1CC2` [Example 2, (2S,3S)-3-Methyl-pyrrolidine-1,2-dicarboxylic acid 2-amide 1-[(8-diethylamino-4,5-dihydro-thiazolo[4,5-h]quinazolin-2-yl)-amide]]: the 50% inhibitory concentration (IC50) against PI3Kα was determined as 5.5 nM; against PI3Kβ, 332 nM; against PI3Kγ, 90 nM; at PI3Kδ it was 30 nM.
In the case of `CCN(CC)c1ncc2c(n1)-c1sc(NC(=O)N3CCC[C@@]3(C)C(N)=O)nc1CC2` [Example 4, (S)-2-Methyl-pyrrolidine-1,2-dicarboxylic acid 2-amide 1-[(8-diethylamino-4,5-dihydro-thiazolo[4,5-h]quinazolin-2-yl)-amide]], the IC50 against PI3Kα was found to be 6.5 nM; against PI3Kβ, 143 nM; at PI3Kγ, 176 nM; at PI3Kδ, 220 nM.
On the same counts, the results for `CCN(CC)c1ncc2c(n1)-c1sc(NC(=O)N3CCC[C@@]3(COC)C(N)=O)nc1CC2` [Example 5, (R)-2-Methoxymethyl-pyrrolidine-1,2-dicarboxylic acid 2-amide 1-[(8-diethylamino-4,5-dihydro-thiazolo[4,5-h]quinazolin-2-yl)-amide]] are 5.5 nM, 47 nM, 153 nM and 46 nM.
Consider `CCN(CC)c1ncc2c(n1)-c1sc(NC(=O)N3CCC[C@@]3(CO)C(N)=O)nc1CC2` [Example 8, (R)-2-Hydroxymethyl-pyrrolidine-1,2-dicarboxylic acid 2-amide 1-[(8-diethylamino-4,5-dihydro-thiazolo[4,5-h]quinazolin-2-yl)-amide]], for which the concentration for half-maximal inhibition (IC50) on PI3Kα was determined as 9.5 nM; on PI3Kβ, 276 nM; on PI3Kγ, 180 nM; against PI3Kδ it was 198 nM.
On the same counts, the results for `CC(C)(C)c1ncc2c(n1)-c1sc(NC(=O)N3CCC[C@@]3(CO)C(N)=O)nc1CC2` [Example 9, (R)-2-Hydroxymethyl-pyrrolidine-1,2-dicarboxylic acid 2-amide 1-[(8-tert-butyl-4,5-dihydro-thiazolo[4,5-h]quinazolin-2-yl)-amide]] are 8.5 nM, 87 nM, 141 nM and 72 nM.
Turning to `CN(Cc1cccc(F)c1)C[C@@]1(C(N)=O)CCCN1C(=O)Nc1nc2c(s1)-c1nc(C(C)(C)C)ncc1CC2` [Example 10, (R)-2-{[(3-Fluoro-benzyl)-methyl-amino]-methyl}-pyrrolidine-1,2-dicarboxylic acid 2-amide 1-[(8-tert-butyl-4,5-dihydro-thiazolo[4,5-h]quinazolin-2-yl)-amide]], the half-maximal inhibitory concentration (IC50) worked out at 18 nM against PI3Kα, 449 nM against PI3Kβ, 282 nM against PI3Kγ and 54 nM on PI3Kδ.
With `CCN(CC)c1ncc2c(n1)-c1sc(NC(=O)N3CCC[C@H]3C(N)=O)nc1CC2` [Example 12, (S)-Pyrrolidine-1,2-dicarboxylic acid 2-amide 1-[(8-diethylamino-4,5-dihydro-thiazolo[4,5-h]quinazolin-2-yl)-amide]], the IC50 at PI3Kα is 6 nM; against PI3Kβ, 516 nM; against PI3Kγ, 230 nM; at PI3Kδ, 53 nM.
On to `CCN(CC)c1ncc2c(n1)-c1sc(NC(=O)N3CC[C@H]3C(N)=O)nc1CC2` [Example 13, (S)-Azetidine-1,2-dicarboxylic acid 2-amide 1-[(8-diethylamino-4,5-dihydro-thiazolo[4,5-h]quinazolin-2-yl)-amide]], for which the half-maximal inhibitory concentration (IC50) against PI3Kα came to 9 nM; against PI3Kβ, 277 nM; against PI3Kγ, 104 nM; at PI3Kδ it was 118 nM.
With `CCN(CC)c1ncc2c(n1)-c1sc(NC(=O)N3C[C@H](F)C[C@H]3C(N)=O)nc1CC2` [Example 16, (2S,4R)-4-Fluoro-pyrrolidine-1,2-dicarboxylic acid 2-amide 1-[(8-diethylamino-4,5-dihydro-thiazolo[4,5-h]quinazolin-2-yl)-amide]], the IC50 at PI3Kα is 5.5 nM; on PI3Kβ it was 297 nM; against PI3Kγ, 74 nM; against PI3Kδ, 60 nM.
On the same counts, the results for `CCN(CC)c1ncc2c(n1)-c1sc(NC(=O)N3C[C@@H](F)C[C@H]3C(N)=O)nc1CC2` [Example 17, (2S,4S)-4-Fluoro-pyrrolidine-1,2-dicarboxylic acid 2-amide 1-[(8-diethylamino-4,5-dihydro-thiazolo[4,5-h]quinazolin-2-yl)-amide]] are 8 nM, 389 nM, 153 nM and 236 nM.
Turning to `CC(=O)NC[C@@H]1CCN(C(=O)Nc2nc3c(s2)-c2nc(C(C)(C)C)ncc2CC3)[C@@H]1C(N)=O` [Example 36, (2S,3S)-3-(Acetylamino-methyl)-pyrrolidine-1,2-dicarboxylic acid 2-amide 1-[(8-tert-butyl-4,5-dihydro-thiazolo[4,5-h]quinazolin-2-yl)-amide]], the 50% inhibitory concentration (IC50) was determined as 12 nM on PI3Kα, 510 nM against PI3Kβ and 40 nM against PI3Kδ.
As for `CC(C)(C)c1ncc2c(n1)-c1sc(NC(=O)N3CC[C@@H](CN4CCOCC4)[C@H]3C(N)=O)nc1CC2` [Example 37, (2S,3S)-3-Morpholin-4-ylmethyl-pyrrolidine-1,2-dicarboxylic acid 2-amide 1-[(8-tert-butyl-4,5-dihydro-thiazolo[4,5-h]quinazolin-2-yl)-amide]], the half-inhibitory concentration (IC50) on PI3Kα turned out to be 4 nM; against PI3Kβ, 182 nM; against PI3Kδ, 19 nM.
Taken in the same sequence, the figures for `CC(C)(C)c1ncc2c(n1)-c1sc(NC(=O)N3CC[C@@H](O)[C@H]3C(N)=O)nc1CC2` [Example 38, (2S,3R)-3-Hydroxy-pyrrolidine-1,2-dicarboxylic acid 2-amide 1-[(8-tert-butyl-4,5-dihydro-thiazolo[4,5-h]quinazolin-2-yl)-amide]] were 9 nM, 866 nM and 44 nM.
Taken in the same sequence, the figures for `CC(C)(C)c1nc2c(s1)CCc1nc(NC(=O)N3CC[C@@H](CN4CCOCC4)[C@H]3C(N)=O)sc1-2` [Example 41, (2S,3S)-3-Morpholin-4-ylmethyl-pyrrolidine-1,2-dicarboxylic acid 2-amide 1-[(7-tert-butyl-4,5-dihydro-benzo[1,2-d;3,4-d′]bisthiazol-2-yl)-amide]] were 24 nM, 3050 nM and 496 nM.
Taken in the same sequence, the figures for `COC[C@@H]1CCN(C(=O)Nc2nc3c(s2)-c2nc(C(C)(C)C)ncc2CC3)[C@@H]1C(N)=O` [Example 42, (2S,3R)-3-Methoxymethyl-pyrrolidine-1,2-dicarboxylic acid 2-amide 1-[(8-tert-butyl-4,5-dihydro-thiazolo[4,5-h]quinazolin-2-yl)-amide]] were 8 nM, 409 nM and 32 nM.
In the case of `COC[C@@H]1CCN(C(=O)Nc2nc3c(s2)-c2nc(C(C)(C)C(F)(F)F)ncc2CC3)[C@@H]1C(N)=O` [Example 45, (2S,3R)-3-Methoxymethyl-pyrrolidine-1,2-dicarboxylic acid 2-amide 1-{[8-(2,2,2-trifluoro-1,1-dimethyl-ethyl)-4,5-dihydro-thiazolo[4,5-h]quinazolin-2-yl]-amide}], the results for the 50% inhibitory concentration (IC50) against PI3Kα, against PI3Kβ and at PI3Kδ were 6.5 nM, 61 nM and 24 nM, respectively.
Turning to `C[C@@H]1CCN(C(=O)Nc2nc3c(s2)-c2cc(C(C)(C)C)ncc2OC3)[C@@H]1C(N)=O` [Example 46, (2S,3R)-3-Methyl-pyrrolidine-1,2-dicarboxylic acid 2-amide 1-[(8-tert-butyl-4H-5-oxa-1-thia-3,7-diaza-cyclopenta[a]naphthalen-2-yl)-amide]], the values for the half-maximal inhibitory concentration (IC50) on PI3Kα, at PI3Kβ and against PI3Kδ were 5.5 nM, 1150 nM and 157 nM, respectively.
Taken in the same sequence, the figures for `CN(C)C[C@@H]1CCN(C(=O)Nc2nc3c(s2)-c2cc(C(C)(C)C)ncc2OC3)[C@@H]1C(N)=O` [Example 47, (2S,3S)-3-Dimethylaminomethyl-pyrrolidine-1,2-dicarboxylic acid 2-amide 1-[(8-tert-butyl-4H-5-oxa-1-thia-3,7-diaza-cyclopenta[a]naphthalen-2-yl)-amide]] were 3 nM, 6170 nM and 1620 nM.
Taken in the same sequence, the figures for `C[C@@H]1CCN(C(=O)Nc2nc3c(s2)-c2cc(C(C)(C)C(F)(F)F)ncc2OC3)[C@@H]1C(N)=O` [Example 48, (2S,3R)-3-Methyl-pyrrolidine-1,2-dicarboxylic acid 2-amide 1-{[8-(2,2,2-trifluoro-1,1-dimethyl-ethyl)-4H-5-oxa-1-thia-3,7-diaza-cyclopenta[a]naphthalen-2-yl]-amide}] were 6 nM, 920 nM and 19 nM.
For `COC[C@@H]1CCN(C(=O)Nc2nc3c(s2)-c2nc(C(C)(C)C(F)(F)F)sc2CC3)[C@@H]1C(N)=O` [Example 50, (2S,3R)-3-Methoxymethyl-pyrrolidine-1,2-dicarboxylic acid 2-amide 1-{[7-(2,2,2-trifluoro-1,1-dimethyl-ethyl)-4,5-dihydro-benzo[1,2-d;3,4-d′]bisthiazol-2-yl]-amide}], the IC50 against PI3Kα was determined as 9 nM; on PI3Kβ, 555 nM; against PI3Kδ, 113 nM.
